Test results: patent publication US7041785B1, “B1-bradykinin receptor antagonists and use thereof” (Université de Sherbrooke, priority 1996, dated 2006)
Read-outs that look alike come from different tables or passages of the source. Non-standard residues stand in square brackets, D forms with d. Residues, ends and D or L forms follow the SMILES beside them. d2Nal = N[C@H](Cc1ccc2ccccc2c1)C(=O)O; Hyp = O=C(O)[C@@H]1C[C@@H](O)CN1; dTic = O=C(O)[C@H]1Cc2ccccc2CN1; Sar = CNCC(=O)O

Test system: T1, angiotensin-converting enzyme (ACE)
T1 construct: purified angiotensin-converting enzyme (ACE) from rabbit lungs; purchased Sigma, St-Louis, Mo; host or cells: purified from rabbit lungs
Test: Metabolic degradation by purified angiotensin-converting enzyme, HPLC analysis
Assay type: in vitro ADME, rabbit
Conditions: rabbit, isolated enzyme ace, pH 7.5
Procedure: The metabolic stability of various kinin-related peptides was evaluated by incubating the peptide in the presence of purified angiotensin-converting enzyme (ACE) from rabbit lungs (purchased from Sigma, St-Louis, Mo.) dissolved in phosphate buffered saline (PBS) (50 mmol/L, pH 7.5 containing 300 mmoL/L NaCl); the final concentration of enzyme was 45 μg/mL. The experimental protocol for the measurement of ACE activity has been described elsewhere^15,16. Briefly, 200 μmol/L of peptides (40 μL) were placed in a PBS buffer and incubated for 5 min at 37EC before adding 8.5 μL of ACE (total volume of the reaction medium; 190 μL). Samples were withdrawn at 30 min intervals, immersed in boiling water for 5 min, then cooled on ice and centrifuged (5 min) before proceeding to analysis of peptides by high pressure liquid chromatography (HPLC). Results of ACE metabolism are expressed in percent of kinin degradation following the incubation (30 min) of kinin substrates with the enzyme.
Pure peptides and metabolic products were analysed by reverse-phas HPLC on a C18 μBondapak column (4.6 mm×25 cm) (Waters) of 10-μm particle size. The peptides and their fragments were eluted at the rate of 2.0 mL/min. with a linear gradient ranging from 5 to 65% of acetonitrile/TFA 0.05%/water over 20 min. at room temperature. The elution positions of these peptides were determined by following the absorbance at 214 nm. For each assay, 50 μL of the reaction medium (treated or not with ACE) were extracted and injected into the column. Concentrations of the peaks products, different from the peaks of the peptide substrate, were estimated using a computer software program (Baseline 810; Waters) that controlled also all the chromatography operations. Isolated metabolites and substrates were collected and identified by Electrospray mass spectrometry (positive mode).

| SMILES | metabolised at 0.5 h, 42.1 μmol/L | further results |
| --- | --- | --- |
| CNCC(=O)N[C@@H](CCCNC(=N)N)C(=O)N1CCC[C@H]1C(=O)N1CCC[C@H]1C(=O)NCC(=O)N[C@@H](Cc1ccccc1)C(=O)N[C@@H](CO)C(=O)N1Cc2ccccc2C[C@@H]1C(=O)N[C@@H](CC(C)C)C(=O)O [Compound 9, Sar(D-Tic^7, Leu^8)desArg^9BK] (H-[Sar]RPPGFS[dTic]L-OH; N-terminus and C-terminus assumed) |  | metabolised at 0.5 h (30 min incubation of peptide (200 μmol/L) with ACE, 37 C, read-out: ACE (% degradation)): 0% |
| CC(C)C[C@H](NC(=O)[C@H]1Cc2ccccc2CN1C(=O)[C@H](CO)NC(=O)[C@H](Cc1ccccc1)NC(=O)CNC(=O)[C@@H]1CCCN1C(=O)[C@@H]1CCCN1C(=O)[C@H](CCCNC(=N)N)NC(=O)[C@H](N)CCCNC(=N)N)C(=O)O [Compound 12, D-Arg(D-Tic^7, Leu^8)desArg^9BK] (H-[dR]RPPGFS[dTic]L-OH; N-terminus and C-terminus assumed) |  | metabolised at 0.5 h: 0% |
| CC(C)C[C@H](NC(=O)[C@H]1Cc2ccccc2CN1C(=O)[C@H](CO)NC(=O)[C@H](Cc1ccccc1)NC(=O)CNC(=O)[C@@H]1C[C@@H](O)CN1C(=O)[C@@H]1CCCN1C(=O)[C@H](CCCNC(=N)N)NC(=O)[C@H](N)CCCNC(=N)N)C(=O)O [Compound 17, D-Arg(Hyp^3, D-Tic^7, Leu^8)desArg^9BK] (H-[dR]RP[Hyp]GFS[dTic]L-OH; N-terminus and C-terminus assumed) |  | metabolised at 0.5 h: 0% |
| CC[C@H](C)[C@H](NC(=O)[C@@H](Cc1ccc2ccccc2c1)NC(=O)[C@H](CO)NC(=O)[C@H](Cc1ccccc1)NC(=O)CNC(=O)[C@@H]1CCCN1C(=O)[C@@H]1CCCN1C(=O)[C@H](CCCNC(=N)N)NC(=O)[C@H](N)CCCNC(=N)N)C(=O)O [Compound 23, D-Arg(D-βNal^7, Ile^8)desArg^9BK] (H-[dR]RPPGFS[d2Nal]I-OH; N-terminus and C-terminus assumed) | 8 ± 1% |  |
| CC[C@H](C)[C@H](NC(=O)[C@@H](Cc1ccc2ccccc2c1)NC(=O)[C@H](CO)NC(=O)[C@H](Cc1ccccc1)NC(=O)CNC(=O)[C@@H]1CCCN1C(=O)[C@@H]1CCCN1C(=O)[C@H](CCCNC(=N)N)NC(=O)[C@H](N)CCCCN)C(=O)O [Compound 25, D-Lys(D-βNal^7, Ile^8)desArg^9BK] (H-[dK]RPPGFS[d2Nal]I-OH; N-terminus and C-terminus assumed) | 9 ± 2% |  |
| CC(=O)N[C@@H](Cc1ccc(O)cc1)C(=O)NCCCCCC(=O)N[C@@H](CCCCN)C(=O)N[C@@H](CCCNC(=N)N)C(=O)N1CCC[C@H]1C(=O)N1CCC[C@H]1C(=O)NCC(=O)N[C@@H](Cc1ccccc1)C(=O)N[C@@H](CO)C(=O)N1CCC[C@H]1C(=O)N[C@@H](CC(C)C)C(=O)O [Compound 27, AcTyrεAhxLys(Leu^8)desArg^9BK] | 52 ± 1% |  |
| CNCC(=O)N[C@@H](Cc1ccc(O)cc1)C(=O)NCCCCCC(=O)N[C@@H](CCCCN)C(=O)N[C@@H](CCCNC(=N)N)C(=O)N1CCC[C@H]1C(=O)N1CCC[C@H]1C(=O)NCC(=O)N[C@@H](Cc1ccccc1)C(=O)N[C@@H](CO)C(=O)N1CCC[C@H]1C(=O)N[C@@H](CC(C)C)C(=O)O [Compound 28, SarTyrεAhxLys(Leu^8)desArg^9BK] | 34 ± 3% |  |
